Results: ChEMBL document CHEMBL5131559, “Discovery and Preclinical Profiling of GSK3839919, a Potent HIV-1 Allosteric Integrase Inhibitor” (ACS Med Chem Lett, 2022)

Assays:
[1] = test system: Human immunodeficiency virus 1; experiment: Antiviral activity against recombinant HIV1 NLRep-Rluc harbouring polymorphic N124/A125 integrase infected in human MT-2 cells assessed as inhibition of virus growth in presence of fetal bovine serum by measuring luciferase activity after 4 days; assay type: functional, organism-based; settings: Human immunodeficiency virus 1, NLRep, MT2, 96 h
[2] = Cytotoxicity against human MT2 cells; assay type: toxicity, cell-based
[3] = test system: Human immunodeficiency virus 1; experiment: Antiviral activity against recombinant HIV1 NLRep-Rluc harbouring polymorphic T124/T125 integrase infected in human MT-2 cells assessed as inhibition of virus growth in presence of fetal bovine serum by measuring luciferase activity after 4 days; assay type: functional, organism-based; settings: Human immunodeficiency virus 1, NLRep, MT2, 96 h
[4] = Metabolic stability in human liver microsomes assessed as parent compound disappearance by measuring half life at 0.5 uM in presence of NADPH by LC-MS/MS analysis; assay type: ADME, Microsome
[5] = Toxicity in rat Hepatoma cell line assessed as fold change in lipid droplet count at 10 uM incubated for 48 hrs by plate reader assay; assay type: cell-based
[6] = Toxicity in human Huh-7 cells assessed as fold change in lipid droplet count at 10 uM incubated for 48 hrs by plate reader assay; assay type: cell-based; settings: huh-7, 48 h
[7] = Clearance in CD-1 mouse at 1 mg/kg, iv by LC-MS/MS analysis; assay type: ADME, organism-based; settings: in vivo
[8] = Toxicity in rat assessed as hepatocellular vacuolation at 200 mg/kg,po for 1 week; assay type: organism-based; settings: in vivo, 168 h, time 1 weeks
[9] = Clearance in Sprague-Dawley rat at 1 mg/kg, iv by LC-MS/MS analysis; assay type: ADME, organism-based; settings: in vivo
[10] = Toxicity in human Huh-7 cells assessed as fold change in lipid droplet count at 20 uM incubated for 48 hrs by plate reader assay; assay type: cell-based; settings: hepatoma cell line
[11] = AUC in rat at 50 mg/kg,po qd for 1 week; assay type: ADME, organism-based; parameters: dose 50 mg/kg, time 1 weeks, route po; settings: in vivo, 168 h
[12] = test system: Human immunodeficiency virus 1; experiment: Antiviral activity against recombinant HIV1 NLRep-Rluc harbouring polymorphic T124/A125 integrase infected in human MT-2 cells assessed as inhibition of virus growth in presence of fetal bovine serum by measuring luciferase activity after 4 days; assay type: functional, organism-based; settings: Human immunodeficiency virus 1, NLRep, MT2, 96 h
[13] = test system: Huh-7; experiment: Cytotoxicity against human Huh-7 cells at 40 to 80 uM; assay type: toxicity, cell-based; settings: huh-7, 80 µM, dose 40-80 µM
[14] = test system: Hepatoma cell line; experiment: Cytotoxicity against rat Hepatoma cell line at 40 to 80 uM; assay type: toxicity, cell-based; settings: dose 40-80 µM
[15] = Clearance in Beagle dog at 1 mg/kg, iv by LC-MS/MS analysis; assay type: ADME, organism-based, Canis lupus familiaris; settings: in vivo
[16] = test system: Human immunodeficiency virus 1; experiment: Antiviral activity against recombinant HIV1 NLRep-Rluc harbouring polymorphic A124/T125 integrase infected in human MT-2 cells assessed as inhibition of virus growth in presence of fetal bovine serum by measuring luciferase activity after 4 days; assay type: functional, organism-based; settings: Human immunodeficiency virus 1, NLRep, MT2, 96 h
[17] = test system: Human immunodeficiency virus 1; experiment: Antiviral activity against recombinant HIV1 NLRep-Rluc harbouring polymorphic N124/T125 integrase infected in human MT-2 cells assessed as inhibition of virus growth in presence of fetal bovine serum by measuring luciferase activity after 4 days; assay type: functional, organism-based; settings: Human immunodeficiency virus 1, NLRep, MT2, 96 h
[18] = Cmax in rat at 50 mg/kg,po qd for 1 week; assay type: ADME, organism-based; parameters: time 1 weeks, dose 50 mg/kg, route po; settings: in vivo
[19] = AUC (0 to infinity) in cynomolgus monkey at 2 mg/kg, po by LC-MS/MS analysis; assay type: ADME, organism-based, Macaca fascicularis; parameters: time infinity, dose 2 mg/kg, route po; settings: in vivo
[20] = Oral bioavailability in cynomolgus monkey at 2 mg/kg by LC-MS/MS analysis; assay type: ADME, organism-based, Macaca fascicularis; settings: in vivo
[21] = AUC (0 to infinity) in CD-1 mouse at 5 mg/kg, po by LC-MS/MS analysis; assay type: ADME, organism-based; parameters: time infinity, dose 5 mg/kg, route po; settings: in vivo
[22] = test system: Human immunodeficiency virus 1; experiment: Antiviral activity against recombinant HIV1 NLRep-Rluc harbouring polymorphic T124/V125 integrase infected in human MT-2 cells assessed as inhibition of virus growth in presence of fetal bovine serum by measuring luciferase activity after 4 days; assay type: functional, organism-based; settings: Human immunodeficiency virus 1, NLRep, MT2, 96 h
[23] = Clearance in cynomolgus monkey at 1 mg/kg, iv by LC-MS/MS analysis; assay type: ADME, organism-based, Macaca fascicularis; settings: in vivo
[24] = AUC (0 to infinity) in Beagle dog at 2 mg/kg, po by LC-MS/MS analysis; assay type: ADME, organism-based, Canis lupus familiaris; parameters: time infinity, dose 2 mg/kg, route po; settings: in vivo
[25] = test system: Human immunodeficiency virus 1; experiment: Antiviral activity against recombinant HIV1 NLRep-Rluc harbouring polymorphic A124/A125 integrase infected in human MT-2 cells assessed as inhibition of virus growth in presence of fetal bovine serum by measuring luciferase activity after 4 days; assay type: functional, organism-based; settings: Human immunodeficiency virus 1, NLRep, MT2, 96 h
[26] = AUC (0 to infinity) in Sprague-Dawley rat at 5 mg/kg, po by LC-MS/MS analysis; assay type: ADME, organism-based; parameters: time infinity, dose 5 mg/kg, route po; settings: in vivo
[27] = Oral bioavailability in Beagle dog at 2 mg/kg by LC-MS/MS analysis; assay type: ADME, organism-based, Canis lupus familiaris; settings: in vivo
[28] = Oral bioavailability in CD-1 mouse at 5 mg/kg by LC-MS/MS analysis; assay type: ADME, organism-based; settings: in vivo
[29] = Oral bioavailability in Sprague-Dawley rat at 5 mg/kg by LC-MS/MS analysis; assay type: ADME, organism-based; settings: in vivo
[30] = test system: Human immunodeficiency virus 1; experiment: Antiviral activity against recombinant HIV1 NLRep-Rluc harbouring polymorphic T124/T125 integrase infected in human MT-2 cells assessed as fold change in inhibition of virus growth in presence of fetal bovine serum by measuring luciferase activity after 4 days; assay type: functional; parameters: reference not given here; settings: time 4 day
[31] = Toxicity in dog assessed as increase in alkaline phosphatase level at 60 mg/kg,po for 1 week; assay type: organism-based, Canis lupus familiaris; settings: in vivo, 168 h, time 1 weeks
[32] = Toxicity in dog assessed as hepatocellular vacuolation at 60 mg/kg,po for 1 week; assay type: organism-based, Canis lupus familiaris; settings: in vivo, 168 h, time 1 weeks
[33] = Toxicity in rat assessed as hepatocellular vacuolation at 50 mg/kg,po for 1 week; assay type: organism-based; settings: in vivo, 168 h, time 1 weeks
[34] = Toxicity in rat assessed as increase in alkaline phosphatase level at 50 mg/kg,po for 1 week; assay type: organism-based; settings: in vivo, 168 h, time 1 weeks

With `Cc1nc(C)c([C@H](OC(C)(C)C)C(=O)O)c(N2CCC(C)(C)CC2)c1-c1ccc(OCCc2ccc(F)cc2)cc1` the EC50 [1] was 3.8 nM, the CC50 [2] was at least 22000 nM and the EC50 [3] was 1.7 nM. The half-life at 0.5 µM [4] was over 120 min, the “fold change (FC)” value [5] was 4 and the “fold change (FC)” value [6] was 3.7.
For `Cc1ncc(-c2ccc(OCCc3ccc(F)cc3)cc2)c(N2CCC(C)(C)CC2)c1[C@H](OC(C)(C)C)C(=O)O`, the “fold change (FC)” value [5] was 2.5 and the “fold change (FC)” value [6] was 2.9.
In the case of `Cc1cccc(Cl)c1CN1CCc2cc(-c3c(C)nc(C)c([C@H](OC(C)(C)C)C(=O)O)c3N3CCC(C)(C)CC3)ccc2C1`, the clearance [7] is reported as 0.234 L/h/kg, the Activity [8] is reported as “Toxic” and the clearance [9] is reported as 0.21 L/h/kg. For the same molecule, the “fold change (FC)” value [10] was 9.1, the EC50 [1] was 7.5 nM and the AUC [11] was 335 µM·h. For the same molecule, the EC50 [12] was 5.4 nM, the Activity [13] was “Toxic” and the Activity [14] was “Toxic”. The clearance [15] was 0.03 L/h/kg, the CC50 [2] was 22500 nM and the EC50 [16] was 5.8 nM. It also gave an EC50 [3] of 3.5 nM, an EC50 [17] of 5.8 nM and a Cmax [18] of 32 µM. For the same molecule, the AUC(0-inf) [19] was 5.4 µM·h, the bioavailability [20] was 58% and the AUC(0-inf) [21] was 30.3 µM·h. For the same molecule, the EC50 [22] was 3.2 nM, the clearance [23] was 0.198 L/h/kg and the AUC(0-inf) [24] was 104 µM·h. It also gave an EC50 [25] of 6.5 nM, an AUC(0-inf) [26] of 14.9 µM·h and a bioavailability [27] of 90%. For the same molecule, the “fold change (FC)” value [5] was 3.7, the “fold change (FC)” value [6] was 4.1 and the bioavailability [28] was 72%. It also gave a bioavailability [29] of 35%.
With `Cc1nc(C)c([C@H](OC(C)(C)C)C(=O)O)c(N2CCC(C)(C)CC2)c1-c1ccc2c(c1)CC[C@@H](Cc1ccc(F)cc1)O2` the EC50 [1] was 7.3 nM, the CC50 [2] was at least 22000 nM and the EC50 [3] was 1.5 nM. The “fold change (FC)” value [30] was 5.
In the case of `Cc1cccc(Cl)c1CN1CCc2cc(-c3cnc(C)c([C@H](OC(C)(C)C)C(=O)O)c3N3CCC(C)(C)CC3)ccc2C1`, the clearance [7] is reported as 0.06 L/h/kg, the Activity [31] is reported as “Toxic” and the Activity [32] is reported as “Toxic”. The Activity [33] was “Toxic”, the clearance [9] was 0.228 L/h/kg and the “fold change (FC)” value [10] was 3.7. For the same molecule, the EC50 [1] was 5.7 nM, the EC50 [12] was 5 nM and the Activity [13] was “Toxic”. For the same molecule, the Activity [14] was “Toxic”, the clearance [15] was 0.132 L/h/kg and the CC50 [2] was 19500 nM. The EC50 [16] was 4.5 nM, the EC50 [3] was 2.8 nM and the EC50 [17] was 3.1 nM. It also gave a Cmax [18] of 488 µM, an AUC(0-inf) [19] of 10.7 µM·h and a bioavailability [20] of 51%. The AUC(0-inf) [21] was 43.1 µM·h, the EC50 [22] was 1.6 nM and the clearance [23] was 0.102 L/h/kg. The AUC(0-inf) [24] was 24.2 µM·h, the EC50 [25] was 4.6 nM and the AUC(0-inf) [26] was 21.6 µM·h. For the same molecule, the bioavailability [27] was 89%, the Activity [34] was “Toxic” and the “fold change (FC)” value [5] was 1.8. The “fold change (FC)” value [6] was 1.2, the bioavailability [28] was 47% and the bioavailability [29] was 71%.
With `Cc1nc(C)c([C@H](OC(C)(C)C)C(=O)O)c(N2CCC(C)(C)CC2)c1-c1cnn(CCCc2ccc(F)cc2)c1` the CC50 [2] was at least 22000 nM, the EC50 [3] was 8.8 nM and the half-life at 0.5 µM [4] was 34 min. For the same molecule, the “fold change (FC)” value [30] was 4.8.
Molecule `Cc1nc(C)c([C@H](OC(C)(C)C)C(=O)O)c(N2CCC(C)(C)CC2)c1-c1ccc2c(c1)CCN(c1nccc(-c3cnccn3)n1)C2` has a clearance [9] of 0.126 L/h/kg, an EC50 [1] of 7.9 nM and a CC50 [2] of at least 17000 nM. The EC50 [3] was 2.2 nM, the AUC(0-inf) [26] was 23.7 µM·h and the bioavailability [29] was 38%.
In the case of `Cc1nc(C)c([C@H](OC(C)(C)C)C(=O)O)c(N2CCC(C)(C)CC2)c1-c1ccc2c(c1)CCN(c1nc3cnccc3s1)C2`, the clearance [9] is reported as 0.888 L/h/kg, the EC50 [1] is reported as 2.6 nM and the CC50 [2] is reported as at least 17000 nM. It also gave an EC50 [3] of 1.5 nM, an AUC(0-inf) [26] of 10.8 µM·h and a bioavailability [29] of over 100%.
`Cc1nc(C)c([C@H](OC(C)(C)C)C(=O)O)c(N2CCC(C)(C)CC2)c1-c1ccc2c(c1)CC[C@H](Cc1ccc(F)cc1)O2` gave an EC50 [1] of 12.8 nM, a CC50 [2] of at least 22000 nM and an EC50 [3] of 2.5 nM. The “fold change (FC)” value [30] was 5.
